Measured values: publication PMC6337261, “Short Peptides with Uncleavable Peptide Bond Mimetics as Photoactivatable Caspase-3 Inhibitors” (Molecules, 2019)

Experiments:
caspase-3 [1] = experiment: Competitive ABPP with UV pre-activation of the probes; format: biochemical; conditions: compound irradiated at 365 nm for 30 min, light source removed, then added to caspase-3 for 30 min; fluorescent ABP read-out
Experimental: (§1) Compounds were irradiated with UV light of 365 nm for 30 min and after removal of the light source added to caspase-3. Residual caspase activity was measured by using a fluorescent caspase ABP as in our previous experiments above.
Caspase-3, produced in E. coli and purified as described before, was reacted in PBS with 1 mM DTT. Samples were combined with the indicated probe and irradiated with a handheld UV lamp at 365 nm for 30 min at room temperature. For competition experiments with ‘pre-activation,’ the indicated probes were irradiated for 30 min prior to addition to caspase-3, and incubated for an additional 30 min. Next, ABP 13 was added (final concentration 1 μM) to label residual caspase-3 activity. The samples were incubated for 30 min at room temperature, after which 1/3rd volume of 4× Laemmli buffer was added. Samples were heated at 95 °C for 2 min and resolved by 15% SDS-PAGE. Gels were scanned using a Typhoon Trio+ fluorescent scanner with excitation at 532 nm and an emission filter of 580 nm. Gel images were processed with ImageJ (background subtraction with rolling ball radius of 50 pixels and automated contrast adjustment).
Figure 3 Non-covalent inhibition of caspase-3 by compounds 9 and 10. (A) Fluorescent labeling of caspase-3 by ψ(CH2NH) peptides 9–10 and triazolo peptides 11–12. […] (B) Deconvoluted ESI-MS of caspase-3. (C) Deconvoluted ESI-MS of caspase-3 after incubation with covalent activity-based probe (ABP) 13. Note that the active site, located on the large subunit, is modified. (D) Deconvoluted ESI-MS of caspase-3 after irradiation in the presence of benzophenone ψ(CH2NH) 10a, not resulting in covalent modification. […] (F) Structures of ψ(CH2NH) peptides 14 and 15 without photocrosslinker. (G) UV irradiation of ψ(CH2NH) peptides 14 and 15 in the presence of benzophenone leads to inhibition of caspase-3, as monitored by competitive ABPP. […] Ac-DEVD-aldehyde (100 nM) was used as a control compound, whereas 9a and 10a (10 μM) were irradiated for 10 min and reacted with sodium bisulfite for an additional 20 min before 30 min incubation with caspase-3 and read-out with a fluorescent caspase ABP.

[2] = LC-MS analysis of probes before and after UV irradiation; format: physicochemical; conditions: irradiation at 365 nm, gradient 10% to 95% acetonitrile with 0.1% formic acid
Experimental: as §1
Although this points towards a cyclization rather than reaction with a water molecule, it is not clear whether it leads to a potent caspase inhibitor. […] Therefore, cyclization seemed improbable, as this would most likely lead to a shift in retention time. We hypothesized that irradiation could potentially lead to oxidation of a very small amount of the ψ(CH2NH) moiety with benzophenone as a photosensitizer, resulting in minute quantities of aldehydes that were not detected on LC-MS, but were sufficient for caspase-3 inhibition. Oxidation of secondary amines under influence of benzophenone has been reported before. […] Note that triazoles cannot undergo this transformation, further explaining their inactivity. The oxidation hypothesis was supported by an experiment in which ψ(CH2NH) peptides 14 and 15, not containing a benzophenone, were irradiated in the presence of 1 eq of spiked-in benzophenone (Figure 3G–I).
All materials were purchased from Sigma Aldrich GmbH (GmbH, Darmstadt, Germany), Carl Roth GmbH + Co. KG (Karlsruhe, Germany), Thermo Fischer Scientific Inc. (Dreieich, Germany), Rapp Polymere GmbH (Tübingen, Germany), Applichem GmbH (Darmstadt, Germany), VWR International GmbH (Darmstadt, Germany), Merck KGaA (Darmstadt, Germany), CreoSalus Inc. (Louisville, KY, USA), and Iris Biotech GmbH (Marktredwitz, Germany) and were used as received, unless otherwise noted. TLC was performed on pre-coated ALUGRAM SIL G plates with detection by a handheld UV lamp (254 nm) and subsequent staining with potassium permanganate, p-anisaldehyde, ninhydrin or cerium ammonium molybdate. LC-MS analysis was performed on a Thermo LCQ Fleet HPLC-MS/MS system using a gradient of 10% to 95% acetonitrile containing 0.1% formic acid. NMR spectra were recorded on a Bruker Avance DRX 400 spectrometer with tetramethylsilane as internal standard. High resolution ESI-FTMS was performed on a Thermo Scientific LTQ Orbitrap Velos Pro mass spectrometer.

caspase-3 [3] = experiment: Fluorogenic substrate (Ac-DEVD-AMC) cleavage assay; format: biochemical; conditions: 10 μM compound, 2 nM caspase-3, 50 μM Ac-DEVD-AMC, HEPES pH 7.4 with 10 mM DTT, n = 2
Experimental: To check whether our probes function as inhibitors, competitive ABPP [28] was performed. Recombinant caspase-3 was incubated with probes 9a–10c, 11a and 12a with or without irradiation at 365 nm, followed by labeling of residually active caspase-3 with the fluorescent, caspase-directed activity-based probe (ABP) SV149, a tetramethylrhodamine derivative of KMB-01 [29]. Caspase activity itself was not affected by UV irradiation, as shown by bands of equal intensity with and without UV light (Figure 2A). […] To confirm inhibition, we also performed substrate cleavage assays using the fluorogenic aminomethyl coumarin substrate Ac-DEVD-AMC. […] Inhibition of active caspases could also be achieved in an apoptotic cell lysate (Figure 2D).
Purified caspase-3 (2 nM) was pre-activated by incubating in caspase reaction buffer (20 mm HEPES pH 7.4, 100 mM NaCl, 1 mM EDTA, 10% sucrose (w/v), 0.1% CHAPS (w/v), 10 mM DTT) for 15 min at 37 °C. Inhibitors 9a, 10a, and DMSO (control) were incubated with the caspase-3 at 10 μM final concentration. One set was irradiated with a handheld UV lamp at 365 nm for 30 min at room temperature whereas the control set was not irradiated. After 30 min, 99 μL of the sample was added to 1 μL of Ac-DEVD-AMC fluorogenic substrate (5 mM in dmso; 50 μM final concentration) in a black 96 well plate. The fluorescence intensity was read using an iD3 SpectraMax platereader (Molecular Devices; excitation wavelength: 340 nm; emission wavelength: 475 nm). The experiment was performed in duplicate. Activity was determined as the slope from the linear part of the progress curve by using GraphPad Prism.
Figure 2 Inhibition of caspase-3. (A) Competitive activity-based protein profiling (ABPP) experiments using ψ(CH2NH) or triazolo peptide derivatives 9–12 with or without irradiation. Compounds 9a–12a were used at 10 μM final concentration, 9b, 9c, 10b and 10c at 100 μM. Inh = caspase inhibitor biotin-DEVD-AOMK, used at 100 nM concentration. (B) Representative progress curves of fluorescence produced by Ac-DEVD-AMC (50 μM) cleavage by caspase-3, irradiated with or without 10 μM of the indicated compounds. (C) Bar graph of residual caspase-3 activity of replicate experiments (n = 2) of those in (B). (D) Inhibition of executioner’s caspase-3 and -7 in lysates of HEK293 cells, treated with cytochrome c/dATP to induce apoptosis.

- Inhibition of caspase-3 after UV pre-activation of compound (caspase-3 [1]): still inhibited
- Change of probe upon UV irradiation (LC-MS before and after) [2]: did not show obvious changes
- Inhibition of Ac-DEVD-AMC cleavage by caspase-3 (caspase-3 [3]; not irradiated): little to no inhibition
Substance: Hexynoyl-Asp-Glu-Val-Aspψ(CH2NH)-Ala-Bpa-NH2 [10a]
- Inhibition of Ac-DEVD-AMC cleavage by caspase-3 (caspase-3 [3]; irradiated at 365 nm for 30 min at room temperature): complete blockage of substrate processing
